From ChEMBL document CHEMBL2321863, “Novel Inverse Binding Mode of Indirubin Derivatives Yields Improved Selectivity for DYRK Kinases” (ACS Med Chem Lett, 2013)

Molecular target: Glycogen synthase kinase 3 beta (Sus scrofa, UniProt B2LUN4)
Experiment: Inhibition of porcine brain GSK3beta using YRRAAVPPSPSLSRHSSPHQSpEDEEE as substrate

Glycogen synthase kinase 3 beta, sequence (B2LUN4 whole entry): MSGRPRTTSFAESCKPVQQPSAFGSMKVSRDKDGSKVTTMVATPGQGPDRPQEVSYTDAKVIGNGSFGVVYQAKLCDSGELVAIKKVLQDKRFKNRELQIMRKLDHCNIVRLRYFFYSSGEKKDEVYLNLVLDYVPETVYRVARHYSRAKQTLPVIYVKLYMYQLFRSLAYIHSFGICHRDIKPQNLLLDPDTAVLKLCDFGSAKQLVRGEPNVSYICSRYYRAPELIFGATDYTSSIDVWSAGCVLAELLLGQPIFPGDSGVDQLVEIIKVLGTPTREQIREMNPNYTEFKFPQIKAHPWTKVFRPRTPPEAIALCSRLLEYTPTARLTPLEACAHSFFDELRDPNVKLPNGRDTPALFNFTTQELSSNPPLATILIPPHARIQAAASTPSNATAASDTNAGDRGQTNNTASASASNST

Q: With `Cn1c(O)c(-c2[nH]c3ccccc3c2N=O)c2cccc(Br)c21` as the compound, how does the IC50 read?
A: > 10 µM
